Measurements reported in the supplement of paper PMC10307832.

What was measured:
Experiment in all cases: relative viability (nuclei count vs DMSO), 5 days (fraction); higher = more cells survive
Imatinib + Tozasertib = compound: Cc1ccc(NC(=O)c2ccc(CN3CCN(C)CC3)cc2)cc1Nc1nccc(-c2cccnc2)n1 [Imatinib] + Cc1cc(Nc2cc(N3CCN(C)CC3)nc(Sc3ccc(NC(=O)C4CC4)cc3)n2)n[nH]1 [Tozasertib] (partner 0.1 µM)
Method in brief: (§1)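 Nuclei were stained with Hoechst during a one-step fixation (final 0.05% Triton X-100, 1% formaldehyde, 1 ug/ml Hoechst) carried out 5 days after dosing, then counted on 4× images. The cells, lung cancer lines in 1536-well plates, had been dosed by pin tool the day after seeding with one drug alone or a fixed anchor-drug dose plus five library-drug doses (not always all listed) in √10 steps. Relative viability is the nuclei count in treated wells divided by that in vehicle wells, and each value is the median of duplicate plates.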

Imatinib + Navitoclax = compound: Cc1ccc(NC(=O)c2ccc(CN3CCN(C)CC3)cc2)cc1Nc1nccc(-c2cccnc2)n1 [Imatinib] + CC1(C)CCC(c2ccc(Cl)cc2)=C(CN2CCN(c3ccc(C(=O)NS(=O)(=O)c4ccc(N[C@H](CCN5CCOCC5)CSc5ccccc5)c(S(=O)(=O)C(F)(F)F)c4)cc3)CC2)C1 [Navitoclax] (partner 0.5 µM)
Method in brief: as §1

Imatinib + Palbociclib = compound: Cc1ccc(NC(=O)c2ccc(CN3CCN(C)CC3)cc2)cc1Nc1nccc(-c2cccnc2)n1 [Imatinib] + CC(=O)c1c(C)c2cnc(Nc3ccc(N4CCNCC4)cn3)nc2n(C2CCCC2)c1=O [Palbociclib] (partner 0.5 µM)
Method in brief: as §1

Imatinib + Vorinostat = compound: Cc1ccc(NC(=O)c2ccc(CN3CCN(C)CC3)cc2)cc1Nc1nccc(-c2cccnc2)n1 [Imatinib] + O=C(CCCCCCC(=O)Nc1ccccc1)NO [Vorinostat] (partner 1 µM)
Method in brief: as §1

Cell Line | relative viability (Imatinib + Tozasertib; first compound 0.02 µM) | relative viability (Imatinib + Tozasertib; first compound 0.06325 µM) | relative viability (Imatinib + Tozasertib; first compound 0.2 µM) | relative viability (Imatinib + Tozasertib; first compound 0.6325 µM) | relative viability (Imatinib + Tozasertib; first compound 2 µM) | relative viability (Imatinib + Navitoclax; first compound 0.02 µM) | relative viability (Imatinib + Navitoclax; first compound 0.2 µM) | relative viability (Imatinib + Navitoclax; first compound 0.6325 µM) | relative viability (Imatinib + Navitoclax; first compound 2 µM) | relative viability (Imatinib + Palbociclib; first compound 0.02 µM) | relative viability (Imatinib + Palbociclib; first compound 0.06325 µM) | relative viability (Imatinib + Palbociclib; first compound 0.2 µM) | relative viability (Imatinib + Palbociclib; first compound 0.6325 µM) | relative viability (Imatinib + Palbociclib; first compound 2 µM) | relative viability (Imatinib + Vorinostat; first compound 0.02 µM) | relative viability (Imatinib + Vorinostat; first compound 0.06325 µM) | relative viability (Imatinib + Vorinostat; first compound 0.2 µM) | relative viability (Imatinib + Vorinostat; first compound 0.6325 µM) | relative viability (Imatinib + Vorinostat; first compound 2 µM) | relative viability (Imatinib + Navitoclax; first compound 0.06325 µM)
NCI-H1944 | 0.259 | 0.401 | 0.253 | 0.236 | 0.262 | 1.03 | 1.05 | 1.07 | 1.08 | 0.347 | 0.306 | 0.373 | 0.316 | 0.42 | 0.605 | 0.573 | 0.536 | 0.512 | 0.439 | –
COR-L 105 | 0.365 | 0.364 | 0.359 | 0.317 | 0.311 | 1.01 | 0.756 | 0.743 | 0.605 | 0.425 | 0.367 | 0.454 | 0.395 | 0.428 | 1.12 | 0.858 | 0.825 | 0.701 | 0.841 | 0.879
NCI-H1648 | 0.542 | 0.349 | 0.426 | – | 0.443 | – | – | – | – | 0.23 | 0.262 | 0.256 | 0.267 | 0.237 | 0.503 | 0.272 | 0.422 | 0.268 | 0.476 | –
RERF-LC-KJ | 0.527 | 0.498 | 0.476 | 0.389 | 0.305 | 1.09 | 1 | 0.83 | 0.954 | 1.11 | 1.23 | 1.07 | 0.981 | 1.09 | 0.698 | 0.535 | – | 0.662 | 0.683 | 0.999
NCI-H3122 | 0.376 | 0.373 | 0.514 | – | 0.383 | – | 1.08 | 1.06 | 1.01 | 0.194 | 0.19 | 0.199 | 0.192 | 0.205 | 1.13 | 1.01 | 1.08 | – | 1.02 | 1.11
LU99A | 0.283 | 0.31 | 0.219 | 0.261 | 0.238 | 0.905 | 0.807 | 1.08 | 0.855 | 0.394 | 0.424 | 0.411 | 0.413 | 0.454 | 0.564 | 0.455 | 0.471 | 0.559 | 0.564 | 0.788
ChaGo-K-1 | 0.223 | 0.189 | 0.208 | 0.185 | 0.21 | 1.04 | – | 1.37 | 1.09 | 0.988 | – | 0.982 | 0.871 | 0.879 | 0.804 | – | 0.79 | 0.761 | 0.697 | 0.927
HOP-62 | 0.431 | – | 0.356 | 0.353 | 0.326 | 0.983 | 1.36 | 1.04 | 0.517 | 0.503 | – | 0.516 | 0.408 | 0.398 | 0.884 | – | 0.83 | 0.562 | 0.68 | –
COR-L23 | 0.226 | 0.174 | 0.165 | 0.161 | 0.154 | 1.11 | 1.5 | 1.04 | 1.03 | 0.329 | 0.226 | 0.303 | 0.31 | 0.297 | 0.523 | 0.519 | 0.424 | 0.399 | 0.41 | 1.32
